Source: patent EP1222183B1, “BENZOPYRAN DERIVATIVES” (priority 1999, dated 2001)

What was measured:
[1] = test system: diastolic blood pressure; experiment: Effect on diastolic blood pressure in anaesthetised dogs after i.v. administration; format: in vivo; settings: dog, dose lowering diastolic blood pressure by 25%
Method: (§1) The experiments were performed according to the method of Imagawa J. et al., J. Pharmacol. Methods 22, 103-111, 1989, with substantial modifications, as follows: adult male beagle dogs, weighing 8-10 kg, were anaesthetised with pentobarbital sodium (30 mg/kg i.v. and 2 mg/kg/h i.v.), intubated and spontaneously ventilated with room air. In order to monitor systemic blood pressure (BP), a polyethylene (PE) catheter was introduced into the aortic arch through the left femoral artery. A collateral of the left femoral vein was cannulated for infusion of anaesthetic, and the right femoral vein was cannulated for administration of compounds. For intra-arterial (i.a.) injection of noradrenaline (NA), a PE catheter was introduced into the lower portion of the abdominal aorta via the right external iliac artery. Through such procedure, NA was selectively distributed to the lower urinary tract. A paramedian vertical suprapubic incision extending from the base of the pelvis to the mid-abdominal region was made and the bladder and prostate were exposed. The bladder was manually emptied with a syringe. Prostatic urethral pressure was monitored with a Mikro-tip catheter (5F) introduced into the bladder via the external urethral meatus, and withdrawn until the pressure transducer was positioned in the prostatic region of the urethra. A ligature was secured between the neck of the bladder and urethra to isolate the response of the latter and to avoid any interaction with the bladder. Another ligature was put around the Mikro-tip catheter at the external meatus, to secure the catheter itself. After a stabilising period following the surgical procedure (30 minutes), in which arterial and prostatic urethral pressure were continuously monitored as basal values, i.a. administration of NA was made at intervals of 20 minutes. The doses of NA chosen were such to produce an increase of at least 100% in urethral pressure. The test compounds were administered i.v. in a cumulative manner with intervals of 15-20 minutes between administrations. I.a. injections of NA were repeated 5 minutes after every dosing of test compound with intervals of about 10 minutes between stimulations. In order to compare the effects of the administered compound, dose/response curves (log dose transformation) were constructed by computing, at the peak effect, the percent decrease in diastolic blood pressure and the percent inhibition of the increase in urethral pressure induced by NA.

[2] = test system: prostatic urethral pressure; experiment: Inhibition of urethral contractions induced by noradrenaline injection in anaesthetised dogs after i.v. administration; format: in vivo; settings: dog; for ED50: Canis lupus familiaris, iv, dose inhibiting by 50% the urethral contractions induced by noradrenaline, read-out: UC ID50; for DBP/UC: ratio between the active doses (DBP ED25 / UC ID50)
Method: as §1, with “cathe[…])” for “catheter (5F)”, “After a stabilising period following the surgical procedure (30 minutes), in which arterial and prostatic urethral pressure were continuously monitored as basal values, i.a. administration of NA was made at intervals of 20 minutes. The doses of NA chosen were such to produce an increase of at least 100% in urethral pressure. The test compounds were administered i.v. in a cumulative manner with intervals of 15-20 minutes between administrations. I.a. injections of NA were repeated 5 minutes after every dosing of test compound with intervals of about 10 minutes between stimulations.” left out

[3] = target: T1, human 5-HT1A-serotoninergic receptor (Homo sapiens, UniProt P08908); experiment: Radioligand binding ([3H]8-OH-DPAT) to cloned 5-HT1A receptor in HeLa cell membranes; settings: cloned human receptor in HeLa cells, 1.2 nM [3H]8-OH-DPAT, 30 minutes at 30°C; read-out: Affinity (Ki) 5-HT1A
T1 construct: expressed in transfected cells; host or cells: HeLa (human), stably transfected
T1 sequence (P08908 1-422): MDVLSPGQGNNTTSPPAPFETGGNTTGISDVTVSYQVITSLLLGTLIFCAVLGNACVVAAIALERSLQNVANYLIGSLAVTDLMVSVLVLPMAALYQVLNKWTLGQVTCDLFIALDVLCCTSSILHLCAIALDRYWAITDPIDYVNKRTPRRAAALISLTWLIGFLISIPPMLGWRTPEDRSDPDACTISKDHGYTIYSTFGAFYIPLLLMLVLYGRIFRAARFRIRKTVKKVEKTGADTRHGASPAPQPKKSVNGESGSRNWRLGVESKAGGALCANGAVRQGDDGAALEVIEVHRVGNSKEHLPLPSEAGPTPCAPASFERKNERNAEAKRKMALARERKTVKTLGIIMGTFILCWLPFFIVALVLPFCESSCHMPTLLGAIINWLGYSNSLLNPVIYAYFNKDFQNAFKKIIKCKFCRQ

[4] = test system: prostatic urethral pressure; settings: dog, i.v., dose inhibiting by 50% the urethral contractions induced by noradrenaline; data from Leonardi A. et al. 1997; cited from earlier work

Row | Ki [3] | SMILES | DBP ED25 [1] | ED50 [2] | DBP/UC [2] | UC ID50 [4]
1 |  | COc1ccc(Cl)cc1N1CCN(CCCNC(=O)c2cccc3c(=O)c(C)c(C(N)=O)oc23)CC1 [Example 1, 2-Carbamoyl-8-{3-[4-(5-chloro-2-methoxyphenyl)-1-piperazinyl]-propylcarbamoyl}-3-methyl-4-oxo-4H-1-benzopyran] | 2769 µg/kg | 0.0118 mg/kg | 234.7 | 
2 |  | CCOC(=O)c1oc2c(C(=O)NCCCN3CCN(c4cc(Cl)ccc4OC)CC3)cccc2c(=O)c1C [Example 4, 2-Ethoxycarbonyl-8-{3-[4-(5-chloro-2-methoxyphenyl)-1-piperazinyl]-propylcarbamoyl}-3-methyl-4-oxo-4H-1-benzopyran] | 163.3 µg/kg | 0.0023 mg/kg | 71.0 | 
3 | > 1000 nM | COc1ccc(OCC(F)(F)F)cc1N1CCN(CCCNC(=O)c2cccc3c(=O)c(C)c(C(N)=O)oc23)CC1 [Example 9, 2-Carbamoyl-8-<3-{4-[2-methoxy-5-(2,2,2-trifluoroethoxy)-phenyl]-1-piperazinyl}-propylcarbamoyl>-3-methyl-4-oxo-4H-1-benzopyran] |  |  |  | 
4 |  | Cc1c(-c2ccccc2)oc2c(C(=O)NCCCN3CCN(c4ccccc4OCC(F)(F)F)CC3)cccc2c1=O [Example 15, 8-<3-{4-[2-(2,2,2-Trifluoroethoxy)-phenyl]-1-piperazinyl}propylcarbamoyl>-3-methyl-4-oxo-2-phenyl-4H-1-benzopyran] | 3001 µg/kg | 0.0049 mg/kg | 612 | 
5 |  | COc1ccc(C#N)cc1N1CCN(CCCNC(=O)c2cccc3c(=O)c(C)c(-c4ccccc4)oc23)CC1 [Example 18, 8-{3-[4-(5-Cyano-2-methoxyphenyl)-1-piperazinyl]-propylcarbamoyl}-3-methyl-4-oxo-2-phenyl-4H-1-benzopyran] | 1297.6 µg/kg | 0.0341 mg/kg | 38.05 | 
6 |  | Cc1c(-c2ccccc2)oc2c(C(=O)NCCCN3CCN(c4cc(Cl)ccc4OCC(F)(F)F)CC3)cccc2c1=O [Example 22, 8-<3-{4-[5-Chloro-2-(2,2,2-trifluoroethoxy)-phenyl]-1-piperazinyl}-propylcarbamoyl>-3-methyl-4-oxo-2-phenyl-4H-1-benzopyran] | 1266 µg/kg | 0.0195 mg/kg | 64.92 | 
7 |  | COc1cc2nc(N3CCN(C(=O)C4CCCO4)CC3)nc(N)c2cc1OC (centres unmarked) [Terazosin, terazosin] |  |  |  | 20.6 µg/kg
